Active and inactive are the calls of the source. The rule behind the calls is not given here.
What was measured:
Plasma [1] = assay: Induction of platelet aggregation in human platelet rich plasma at plasma peak concentration of 10 times anti-thrombosis ED50 measured after 10 mins by light transmission aggregometry
[2] = target: Prothrombin (Homo sapiens) (UniProt P00734); assay: Inhibition of factor 2a (unknown origin) at IC50 preincubated for 1 min followed by chromogenic substrate addition and measured for 2 mins; settings: time 3.0 min
[3] = target: T1, Coagulation factor VII (Homo sapiens) (UniProt P08709); assay: Inhibition of factor 7a (unknown origin) at IC50 using pefachrome factor VIIa as substrate preincubated for 1 min followed by chromogenic substrate addition and measured for 2 mins; settings: time 3.0 min
T1 sequence (whole entry): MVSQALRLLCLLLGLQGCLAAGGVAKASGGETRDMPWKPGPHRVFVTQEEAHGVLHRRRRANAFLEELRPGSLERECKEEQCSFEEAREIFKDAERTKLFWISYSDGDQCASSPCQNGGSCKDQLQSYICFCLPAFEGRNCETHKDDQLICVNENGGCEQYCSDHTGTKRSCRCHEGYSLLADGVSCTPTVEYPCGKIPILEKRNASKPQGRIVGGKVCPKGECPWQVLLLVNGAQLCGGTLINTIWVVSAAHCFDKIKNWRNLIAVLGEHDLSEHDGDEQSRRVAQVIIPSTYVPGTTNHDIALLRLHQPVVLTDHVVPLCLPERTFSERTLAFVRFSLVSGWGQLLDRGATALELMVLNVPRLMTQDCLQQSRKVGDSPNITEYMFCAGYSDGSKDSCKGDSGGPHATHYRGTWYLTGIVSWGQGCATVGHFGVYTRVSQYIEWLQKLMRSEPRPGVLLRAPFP

[4] = target: Coagulation factor X (Homo sapiens) (UniProt P00742); assay: Inhibition of factor 10a (unknown origin) at IC50 preincubated for 1 min followed by chromogenic substrate addition and measured for 2 mins; settings: time 3.0 min
Chain of Coagulation factor X (Homo sapiens) (P00742 41-179 limits assumed): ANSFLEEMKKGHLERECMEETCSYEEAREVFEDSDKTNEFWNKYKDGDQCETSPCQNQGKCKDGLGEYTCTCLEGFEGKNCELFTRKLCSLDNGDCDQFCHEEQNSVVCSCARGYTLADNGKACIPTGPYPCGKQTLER
Chain of Coagulation factor X (Homo sapiens) (P00742 235-488 limits assumed): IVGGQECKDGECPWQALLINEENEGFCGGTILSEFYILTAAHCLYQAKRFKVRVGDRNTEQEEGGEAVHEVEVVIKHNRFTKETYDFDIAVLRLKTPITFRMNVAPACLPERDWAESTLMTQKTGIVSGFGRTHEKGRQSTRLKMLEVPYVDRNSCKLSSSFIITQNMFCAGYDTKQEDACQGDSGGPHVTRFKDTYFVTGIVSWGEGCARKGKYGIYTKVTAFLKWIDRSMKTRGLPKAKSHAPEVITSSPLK

[5] = target: Coagulation factor XI (Homo sapiens) (UniProt P03951); assay: Inhibition of factor 11a (unknown origin) at IC50 using S-2366 as substrate preincubated for 1 min followed by chromogenic substrate addition and measured for 2 mins; settings: time 3.0 min
Chain of Coagulation factor XI (Homo sapiens) (P03951 19-387 limits assumed): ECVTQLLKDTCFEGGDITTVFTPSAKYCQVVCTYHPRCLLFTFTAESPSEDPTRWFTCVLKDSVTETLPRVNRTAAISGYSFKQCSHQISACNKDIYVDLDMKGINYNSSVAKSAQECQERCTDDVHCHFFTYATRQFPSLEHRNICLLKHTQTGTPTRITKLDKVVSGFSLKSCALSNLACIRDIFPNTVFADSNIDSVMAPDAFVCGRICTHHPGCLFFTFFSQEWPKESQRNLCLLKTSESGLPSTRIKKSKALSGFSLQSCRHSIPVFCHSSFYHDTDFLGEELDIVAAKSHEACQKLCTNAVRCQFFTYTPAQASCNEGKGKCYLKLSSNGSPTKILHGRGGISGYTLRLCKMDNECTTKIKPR
Chain of Coagulation factor XI (Homo sapiens) (P03951 388-625 limits assumed): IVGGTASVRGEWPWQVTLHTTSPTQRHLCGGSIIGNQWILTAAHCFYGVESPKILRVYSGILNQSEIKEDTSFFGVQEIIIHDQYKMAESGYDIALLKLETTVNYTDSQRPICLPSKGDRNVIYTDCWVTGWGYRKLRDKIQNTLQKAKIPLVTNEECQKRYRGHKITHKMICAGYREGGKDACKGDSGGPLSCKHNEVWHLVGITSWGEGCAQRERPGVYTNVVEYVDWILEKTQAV

[6] = target: T2, Coagulation factor XII (Homo sapiens) (UniProt P00748); assay: Inhibition of factor 12a (unknown origin) at IC50 using kallikrein chromogenic substrate preincubated for 1 min followed by chromogenic substrate addition and measured for 2 mins; settings: time 3.0 min
T2 sequence (whole entry): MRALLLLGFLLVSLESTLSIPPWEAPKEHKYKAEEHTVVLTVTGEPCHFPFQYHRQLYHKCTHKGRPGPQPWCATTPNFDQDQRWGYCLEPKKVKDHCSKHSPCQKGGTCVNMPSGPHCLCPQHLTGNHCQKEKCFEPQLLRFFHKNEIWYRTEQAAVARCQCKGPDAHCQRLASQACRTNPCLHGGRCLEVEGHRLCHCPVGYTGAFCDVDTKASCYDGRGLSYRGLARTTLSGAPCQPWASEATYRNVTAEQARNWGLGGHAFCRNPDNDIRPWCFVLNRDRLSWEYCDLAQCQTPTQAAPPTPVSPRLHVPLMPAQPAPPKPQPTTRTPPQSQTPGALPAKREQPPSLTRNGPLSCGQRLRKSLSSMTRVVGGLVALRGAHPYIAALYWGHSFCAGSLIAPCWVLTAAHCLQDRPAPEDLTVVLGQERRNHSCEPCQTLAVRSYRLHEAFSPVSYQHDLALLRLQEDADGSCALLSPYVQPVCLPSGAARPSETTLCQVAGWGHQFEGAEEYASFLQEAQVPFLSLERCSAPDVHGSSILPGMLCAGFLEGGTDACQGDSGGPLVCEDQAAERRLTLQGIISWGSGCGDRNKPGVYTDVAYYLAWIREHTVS

[7] = target: Prothrombin (Homo sapiens) (UniProt P00734); assay: Inhibition of factor 2a (unknown origin) at IC50 preincubated for 1 min followed by chromogenic substrate addition and measured for 2 mins in presence of AT-III; settings: time 3.0 min
[8] = target: T1, Coagulation factor VII (Homo sapiens); assay: Inhibition of factor 7a (unknown origin) at IC50 using pefachrome factor VIIa as substrate preincubated for 1 min followed by chromogenic substrate addition and measured for 2 mins in presence of AT-III; settings: time 3.0 min
[9] = target: Coagulation factor X (Homo sapiens) (UniProt P00742); assay: Inhibition of factor 10a (unknown origin) at IC50 preincubated for 1 min followed by chromogenic substrate addition and measured for 2 mins in presence of AT-III; settings: time 3.0 min
[10] = target: Coagulation factor XI (Homo sapiens) (UniProt P03951); assay: Inhibition of factor 11a (unknown origin) at IC50 using S-2366 as substrate preincubated for 1 min followed by chromogenic substrate addition and measured for 2 mins in presence of AT-III; settings: time 3.0 min
[11] = target: T2, Coagulation factor XII (Homo sapiens); assay: Inhibition of factor 12a (unknown origin) at IC50 using kallikrein chromogenic substrate preincubated for 1 min followed by chromogenic substrate addition and measured for 2 mins in presence of AT-III; settings: time 3.0 min
[12] = target: Prothrombin (Homo sapiens) (UniProt P00734); assay: Inhibition of factor 2a (unknown origin) at IC90 preincubated for 1 min followed by chromogenic substrate addition and measured for 2 mins in presence of AT-III; settings: time 3.0 min
[13] = target: Coagulation factor XI (Homo sapiens) (UniProt P03951); assay: Inhibition of factor 11a (unknown origin) at IC90 using S-2366 as substrate preincubated for 1 min followed by chromogenic substrate addition and measured for 2 mins in presence of AT-III; settings: time 3.0 min
[14] = target: Coagulation factor X (Homo sapiens) (UniProt P00742); assay: Inhibition of factor 10a (unknown origin) at IC90 preincubated for 1 min followed by chromogenic substrate addition and measured for 2 mins in presence of AT-III relative to control; settings: time 3.0 min
Plasma [15] = assay: Induction of platelet aggregation in rat wash platelet at plasma peak concentration of 10 times anti-thrombosis ED50 measured after 10 mins by light transmission aggregometry
Plasma [16] = assay: (§1) Anticoagulation activity in human plasma assessed as drug level causing 20 times doubling of APTT preincubated for 2 mins followed by APTT reagent and measured after 3 mins by coagulometric method relative to dHG-5; type: functional; settings: time 5 min
[17] = target: T3, Coagulation factor IX/VIII (Homo sapiens) (UniProt P00740+P00451); assay: (§2) Inhibition of human citrated plasma iXase (factor 8a-factor 9a complex) preincubated for 2 mins followed by factor 10 addition and measured after 1 min by FXa chromogenic substrate SXa-11 based assay relative to dHG-5; type: protein-complex assay; settings: time 3.0 min
Coagulation factor IX [18] = target: T4, Coagulation factor IX (Homo sapiens, UniProt P00740); assay: Inhibition of factor 9a (unknown origin) binding to immobilized biotinylated oHG-11 by biolayer interferometry relative to dHG-5
T4 sequence (P00740 47-191 limits assumed): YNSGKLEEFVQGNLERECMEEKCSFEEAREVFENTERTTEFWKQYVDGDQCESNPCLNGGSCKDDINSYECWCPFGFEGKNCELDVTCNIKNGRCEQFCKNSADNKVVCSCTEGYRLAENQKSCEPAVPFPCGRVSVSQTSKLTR
T4 sequence (P00740 227-461 limits assumed): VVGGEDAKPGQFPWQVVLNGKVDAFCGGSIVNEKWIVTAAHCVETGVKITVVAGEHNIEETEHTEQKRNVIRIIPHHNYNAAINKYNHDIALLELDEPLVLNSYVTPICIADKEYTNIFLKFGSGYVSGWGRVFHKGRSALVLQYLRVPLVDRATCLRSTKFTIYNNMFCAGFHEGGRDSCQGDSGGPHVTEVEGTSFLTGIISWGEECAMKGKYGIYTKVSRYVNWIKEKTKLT

Rattus norvegicus [19] = assay: (§3) Antithrombotic activity in thromboplastin and stasis-induced Sprague-Dawley rat deep venous thrombosis model assessed as reduction in venous thrombosis at 2.7 mg/kg, sc administered 1 hr prior to thromboplastin addition for 20 secs followed by establishment of stasis for 20 mins relative to dHG-5; type: functional; settings: time 80.33 min, 1.339 h
Plasma [20] = assay: as §1, with “of APTT by measuring activity potency of oligosaccharides multiplied by the percentage of oligosaccharides in dHG-5 preincubated for” for “of APTT preincubated for”; type: functional; settings: time 5 min
[21] = target: T3, Coagulation factor IX/VIII (Homo sapiens); assay: as §2, with “complex) assessed as activity potency of oligosaccharides multiplied by the percentage of oligosaccharides in dHG-5” for “complex)”; type: protein-complex assay; settings: time 3.0 min
Coagulation factor IX [22] = target: T4, Coagulation factor IX; assay: Inhibition of factor 9a (unknown origin) binding to immobilized biotinylated oHG-11 assessed as activity potency of oligosaccharides multiplied by the percentage of oligosaccharides in dHG-5 by biolayer interferometry relative to dHG-5
Rattus norvegicus [23] = assay: as §3, with “venous thrombosis by measuring activity potency of oligosaccharides multiplied by the percentage of oligosaccharides in dHG-5 at 2.7” for “venous thrombosis at 2.7”; type: functional; settings: time 80.33 min, 1.339 h

CC(=O)N[C@H]1[C@H](O[C@@H]([C@H](O[C@@H]2O[C@@H](C)[C@@H](OS(=O)(=O)[O-])[C@@H](OS(=O)(=O)O)[C@@H]2O)[C@@H](O)CO)[C@H](O)C(=O)[O-])O[C@H](COS(=O)(=O)[O-])[C@H](OS(=O)(=O)[O-])[C@@H]1O[C@@H]1O[C@H](C(=O)[O-])[C@@H](O[C@@H]2O[C@H](COS(=O)(=O)[O-])[C@H](OS(=O)(=O)[O-])[C@H](O[C@@H]3O[C@H](C(=O)[O-])[C@@H](O[C@@H]4O[C@H](COS(=O)(=O)[O-])[C@H](OS(=O)(=O)[O-])[C@H](O[C@@H]5O[C@H](C(=O)[O-])[C@@H](O[C@@H]6O[C@H](COS(=O)(=O)[O-])[C@H](OS(=O)(=O)[O-])[C@H](O[C@@H]7OC(C(=O)[O-])=C[C@H](O[C@@H]8O[C@@H](C)[C@@H](OS(=O)(=O)[O-])[C@@H](OS(=O)(=O)O)[C@@H]8O)[C@H]7O)[C@H]6NC(C)=O)[C@H](O[C@@H]6O[C@@H](C)[C@@H](OS(=O)(=O)[O-])[C@@H](OS(=O)(=O)O)[C@@H]6O)[C@H]5O)[C@H]4NC(C)=O)[C@H](O[C@@H]4O[C@@H](C)[C@@H](OS(=O)(=O)[O-])[C@@H](OS(=O)(=O)O)[C@@H]4O)[C@H]3O)[C@H]2NC(C)=O)[C@H](O[C@@H]2O[C@@H](C)[C@@H](OS(=O)(=O)[O-])[C@@H](OS(=O)(=O)O)[C@@H]2O)[C@H]1O.[Na+].[Na+].[Na+].[Na+].[Na+].[Na+].[Na+].[Na+].[Na+].[Na+].[Na+].[Na+].[Na+].[Na+].[Na+].[Na+].[Na+].[Na+]
Activity (Plasma [1]): Not Active | inhibition [2]: inactive | inhibition (active/not active) [3]: inactive | inhibition [4]: inactive | inhibition [5]: inactive | inhibition [6]: inactive | inhibition [7]: inactive | inhibition [8]: inactive | inhibition [9]: inactive | inhibition [10]: inactive | inhibition [11]: inactive | inhibition [12]: Active | inhibition [13]: Active | inhibition [14]: 14.2% | Activity (Plasma [15]): Not Active | Ratio (Plasma [16]): 61.09 U | Ratio [17]: 51.8 U | Ratio (Coagulation factor IX [18]): 35.9 U | Ratio (Rattus norvegicus [19]): 113.95 U | Ratio (Plasma [20]): 9.73 U | Ratio [21]: 8.26 U | Ratio (Coagulation factor IX [22]): 5.72 U | Ratio (Rattus norvegicus [23]): 18.12 U
